Measurements from patent publication US20230000808A1, “COMPOSITIONS AND METHODS EXCLUDING OR WITH REDUCED GLUTAMINE FOR THE TREATMENT OF HEMOGLOBINOPATHIES AND THALASSEMIAS” (AXCELLA HEALTH INC., priority 2019, published 2023).

Tests used:
IL-6 [1] = test: Secreted IL-6 in HLMVEC treated with TNF-α (FirePlex); type: cell-based, human; conditions: HLMVEC + 0.5 ng/mL TNF-α, 24 h; amino acids 20x HMDB, Nac/Cit/Car 5 mM as bracketed
Method: (§1) Primary Human Lung Microvascular Endothelial Cells (HLMVEC; Lonza) were seeded at 6,000 cells per well in Endothelial Cell Growth Basal Medium-2 (Lonza) supplemented with Fetal Bovine Serum (FBS; Lonza), human EGF (Lonza), human VEGF (Lonza), R3-Insulin-like Growth Factor-1 (Lonza), ascorbic acid (Lonza), hydrocortisone (Lonza), human FGF-beta (Lonza), and gentamicin/amphotericin-b (Lonza) in a 96-well plate (Thermo Fisher). The cells were incubated for 45 minutes at room temperature, then incubated overnight at 37° C./5% CO2.
(§2) Following overnight incubation, cell were washed once with 150 μL of Dulbecco's phosphate buffered saline (DPBS; Gibco), and then treated with Endothelial Basal Medium MCB-131 (amino acid, glucose, sodium pyruvate, and phenol red free; US Biologicals) containing a defined custom amino acid concentration based on physiological concentrations in blood of patients with SCD (thus recapitulating observed metabolic imbalances such as the depletion of certain essential amino acids including arginine and aspartate and enrichment of certain non-essential amino acids including glutamate and asparagine), dialyzed FBS (Hyclone), human EGF (Lonza), human VEGF (Lonza), R3-Insulin-like Growth Factor-1 (Lonza), ascorbic acid (Lonza), hydrocortisone (Lonza), human FGF-beta (Lonza), and gentamicin/amphotericin-b (Lonza), glucose, 10 mM HEPES, sodium pyruvate, and sodium bicarbonate supplemented with one of the following: • a. PBS (vehicle control), • b. 0.5 ng/mL Tumor Necrosis Factor alpha (TNFα) and PBS, or; • c. 0.5 ng/mL TNF-α and amino acid treatments at 20× mean physiological concentrations in plasma based on values published in the Human Metabolome Database (HMDB) in PBS.
Supernatants were analyzed for IL-6 concentrations using a Human Cytokines FirePlex-HT Panel 1 kit (abcam) according to the manufacturer-supplied instructions. Particles were imaged on a high content imager (Molecular Devices), and results were interpolated from a standard curve with FirePlex Analysis Workbench Software (abcam) according manufacturer's recommendations.

HLMVEC = test: META-rank score, composite of VCAM1, ICAM1 and IL6 in the HLMVEC model; type: cell-based, human; conditions: HLMVEC + TNF-α; lower score = more optimal; 20x HMDB / 5 mM
Method: The ability of single amino acids and combinations to simultaneously impact these phenotypes was measured by a META-rank score (Tables 17 and 18). META-rank score is a composite measure that considers the optimal impact on all 3 phenotypes (e.g. decrease VCAM1, ICAM1, and IL6) in the HLMVEC model.

VCAM-1 = VCAM-1 cell integrated intensity in HLMVEC treated with TNF-α (immunofluorescence); type: cell-based, human; conditions: for VCAM-1 Cell Integrated Intensity Median: HLMVEC + 0.5 ng/mL TNF-α, 24 h, amino acids 20x HMDB, Nac/Cit/Car 5 mM as bracketed
Method: as §1, §2
(§3) After 24 hours of treatment, cells were washed once with 150 μL of DPBS (Gibco), then fixed with 4% paraformaldehyde. Following fixation, cells were stained with anti-ICAM-1 [MEM-111] (mouse IgG2a anti-human; abcam) and anti-VCAM1 [1.4C3] (mouse IgG1, K anti-human; abcam) primary antibodies at 1000×, and 100× dilutions respectively. Cells were then stained with Goat anti-Mouse IgG2a Cross-Adsorbed Secondary Antibody, Alexa Fluor 594 (Invitrogen) and Goat anti-Mouse IgG1 Cross-Adsorbed Secondary Antibody, Alexa Fluor 647 (Invitrogen) secondary antibodies. Nuclei were stained with Hoechst 3342 (Life Technologies).
(§4) Antibody binding was detected by fluorescence microscopy using a high content imager (Molecular Devices). Images were analyzed using MetaXpress 6 software to determine the integrated intensity per cell for each wavelength corresponding to ICAM-1 or VCAM-1.

ICAM-1 = ICAM-1 cell integrated intensity in HLMVEC treated with TNF-α (immunofluorescence); type: cell-based, human; conditions: for ICAM-1 Cell Integrated Intensity Median: HLMVEC + 0.5 ng/mL TNF-α, 24 h, amino acids 20x HMDB, Nac/Cit/Car 5 mM as bracketed
Method: as §1, §2, §3, §4

IL-6 [2] = test: LPS-induced IL-6 secretion in primary human monocyte-derived macrophages (ELISA); type: cell-based; parameters: Donor 1 IL-6 Measurements Mean: unit not given here; conditions: LPS, baseline subtracted
Method: (§5) Primary human PMBC derived macrophages were seeded on day 0 at 3.0×10^4 cells per well in 96-well microplates (ThermoFisher) in Dulbecco's Modified Eagle Medium (DMEM) (Gibco) supplemented with penicillin-streptomycin (Hyclone) and 10% heat inactivated fetal bovine serum (HI-FBS) (Atlanta Bio) and incubated overnight at 37° C., 5% CO2. On day 1, cells were washed once with 150 μl per well DPBS (Gibco) and treated with 75 μl of: • a. […] The same medium described above with one amino acid at various concentrations including complete dropout. […] On day 3, the supernatant was collected and immediately frozen in −80° C. freezer. Cells were washed once with 150 μl DPBS and viability was assessed using the WST-8 Cell Proliferation Cytotoxicity Assay (Dojindo). […] Protein levels in supernatant samples were analyzed by ELISA for IL-6 and TNFα using commercially available kits (R&D Systems) according to manufacturer-supplied protocols.

TNFα = test: LPS-induced TNF-α secretion in primary human monocyte-derived macrophages (ELISA); type: cell-based; conditions: for TNF-α Measurements Mean: LPS, baseline subtracted
Method: as §5

[3] = 0.5 ng/mL TNF-α, amino acids at 20× HMDB, 24 hours

## N=C(N)NCCC[C@H](N)C(=O)O [Arg]
IL-6 [1]
  Secreted IL6 Median: −0.224
HLMVEC
  Metarank (Table 17): 19
VCAM-1
  VCAM-1 Cell Integrated Intensity Median: −0.001
ICAM-1
  ICAM-1 Cell Integrated Intensity Median: −0.046

## NC(=O)CC[C@H](N)C(=O)O [Gln]
IL-6 [1]
  Secreted IL6 Median: 0.043
HLMVEC
  Meta-Rank (Table 18): 29
  Metarank (Table 17): 28
VCAM-1
  VCAM-1 Cell Integrated Intensity Median: 0.372
ICAM-1
  ICAM-1 Cell Integrated Intensity Median: 0.237

## NCC(=O)O [Gly, glycine]
IL-6 [1]
  Secreted IL6 Median: −0.010
HLMVEC
  Meta-Rank (Table 18): 3
  Metarank (Table 17): 26
VCAM-1; [3]
  VCAM-1 expression in HLMVEC: greatly reduced
VCAM-1
  VCAM-1 Cell Integrated Intensity Median: −0.298
ICAM-1; [3]
  TNFα induced ICAM-1 expression levels in HLMVEC: reduced levels of ICAM-1 expression to a lesser extent
ICAM-1
  ICAM-1 Cell Integrated Intensity Median: −0.261

## N[C@@H](Cc1c[nH]cn1)C(=O)O [His]
IL-6 [1]
  Secreted IL6 Median: −0.198
HLMVEC
  Meta-Rank (Table 18): 18.5
  Metarank (Table 17): 22
VCAM-1
  VCAM-1 Cell Integrated Intensity Median: 0.109
ICAM-1
  ICAM-1 Cell Integrated Intensity Median: 0.084

## CC[C@H](C)[C@H](N)C(=O)O [Isoleucine]
IL-6 [2]; Conc. 66 μM (baseline)
  Donor 1 IL-6 Measurements Mean: 0
  Donor 2 IL-6 Measurements Mean: 0
IL-6 [2]; Conc. 1328 μM
  Donor 1 IL-6 Measurements Mean: 25.98
  Donor 2 IL-6 Measurements Mean: −2.318
  Donor 3 IL-6 Measurements Mean: −28.9897
IL-6 [2]; Conc. 3320 μM
  Donor 1 IL-6 Measurements Mean: −15.8843
  Donor 2 IL-6 Measurements Mean: 2.305
  Donor 3 IL-6 Measurements Mean: 0
IL-6 [2]; Conc. 6639 μM
  Donor 1 IL-6 Measurements Mean: −218.332
  Donor 2 IL-6 Measurements Mean: −1.774
  Donor 3 IL-6 Measurements Mean: −16.3663
IL-6 [2]; Conc. 66 μM
  Donor 3 IL-6 Measurements Mean: −6.69
TNFα; Donor 1, Conc. 66 μM (baseline)
  TNF-α Measurements Mean: 0
TNFα; Donor 1, Conc. 1328 μM
  TNF-α Measurements Mean: −42.68
TNFα; Donor 1, Conc. 3320 μM
  TNF-α Measurements Mean: −96.3
TNFα; Donor 1, Conc. 6639 μM
  TNF-α Measurements Mean: −40.95
TNFα; Donor 2, Conc. 66 μM (baseline)
  TNF-α Measurements Mean: 4.74E−15
TNFα; Donor 2, Conc. 1328 μM
  TNF-α Measurements Mean: 2.919
TNFα; Donor 2, Conc. 3320 μM
  TNF-α Measurements Mean: 10.26
TNFα; Donor 2, Conc. 6639 μM
  TNF-α Measurements Mean: 19.26
TNFα; Donor 2, Two Way ANOVA Dunnett
  effect on LPS-induced TNF-α secretion: increased
TNFα; Donor 3, Conc. 66 μM (baseline)
  TNF-α Measurements Mean: −2.4E−15
TNFα; Donor 3, Conc. 1328 μM
  TNF-α Measurements Mean: −6.23
TNFα; Donor 3, Conc. 3320 μM
  TNF-α Measurements Mean: 3.309
TNFα; Donor 3, Conc. 6639 μM
  TNF-α Measurements Mean: −1.66

## CC(C)C[C@H](N)C(=O)O [Leu]
IL-6 [1]
  Secreted IL6 Median: −0.491
HLMVEC
  Meta-Rank (Table 18): 20
  Metarank (Table 17): 7
VCAM-1
  VCAM-1 Cell Integrated Intensity Median: 0.125
ICAM-1
  ICAM-1 Cell Integrated Intensity Median: 0.086
